Measurements as given in patent US10004701B2, “Methods and compositions for treating infection” (UNIVERSITY OF ROCHESTER, priority 2012, dated 2018).
≈ marks a conversion by molar mass, not a printed value. Like-named read-outs stand apart in the source and are kept apart here.

Experiments:
[1] = tested on: S. aureus; assay: Minimum Inhibitory Concentration (MIC) testing, terfenadine study; format: cell-based; details: Staphylococcus aureus, 16 h
[2] = tested on: E. faecium; assay: AK assay 384-well format, Prestwick library screening; format: cell-based, Enterococcus faecium; details: 50 μM final drug concentration
[3] = tested on: S. aureus strain USA300-0114; assay: as above; format: cell-based, Staphylococcus aureus; details: 50 μM final drug concentration
[4] = tested on: K. pneumoniae; assay: as above; format: cell-based, Klebsiella pneumoniae; details: 50 μM final drug concentration
[5] = tested on: A. baumannii strain 98-37-09; assay: as above; format: cell-based, Acinetobacter baumannii; details: 50 μM final drug concentration
[6] = tested on: P. aeruginosa; assay: as above; format: cell-based, Pseudomonas aeruginosa; details: 50 μM final drug concentration
[7] = tested on: E. cloacae; assay: as above; format: cell-based, Enterobacter cloacae; details: 50 μM final drug concentration
[8] = tested on: E. coli; assay: as above; format: cell-based, Escherichia coli; details: 50 μM final drug concentration
[9] = S. aureus, MHB, strain not given, read-out: MIC
[10] = cutoff for positive-scoring molecules 3-fold increase
[11] = planktonic, cutoff for positive-scoring molecules 3-fold increase
[12] = planktonic, cutoff for positive 3-fold increase
[13] = planktonic E. faecium, positive cutoff 3-fold increase
[14] = planktonic S. aureus, positive cutoff 3-fold increase
[15] = planktonic K. pneumoniae, positive cutoff 3-fold increase
[16] = planktonic A. baumannii, positive cutoff 3-fold increase
[17] = planktonic P. aeruginosa, positive cutoff 3-fold increase
[18] = planktonic E. cloacae, positive cutoff 3-fold increase
[19] = planktonic E. coli, positive cutoff 3-fold increase

For `CC(C)(C)c1ccc(C(O)CCCN2CCC(C(O)c3ccccc3)CC2)cc1` (mixture of isomers) [Compound 31, 1-(4-(tert-butyl)phenyl)-4-(4-(hydroxy(phenyl)methyl)piperidin-1-yl)butan-1-ol], the MIC [1] was 128 µg/mL.

`CC(C)c1ccc(C(O)CCCN2CCC(C(O)(c3ccccc3)c3ccccc3)CC2)cc1` (centres unmarked) [Compound 1, 4-(4-(hydroxydiphenylmethyl)piperidin-1-yl)-1-(4-isopropylphenyl)butan-1-ol] showed an MIC [1, 9] of 16 µg/mL (≈ 35 µM).

In the case of `CC(C)(C)c1ccc(C(=O)CCCN2CCC(C(O)(c3ccccc3)c3ccccc3)CC2)cc1` [Compound 11, 1-(4-(tert-butyl)phenyl)-4-(4-(hydroxydiphenylmethyl)piperidin-1-yl)butan-1-one], the MIC [1] is reported as 8 µg/mL (≈ 17 µM).

`CC(C)(C)c1ccc(C(O)CN2CCC(C(O)(c3ccccc3)c3ccccc3)CC2)cc1` (centres unmarked) [Compound 17, 1-(4-(tert-butyl)phenyl)-2-(4-(hydroxydiphenylmethyl)piperidin-1-yl)ethanol] was tested, and the MIC [1, 9] was 16 µg/mL (≈ 36.1 µM).

Work on `CC(C)(C)c1ccc(C(=O)CN2CCC(C(O)(c3ccccc3)c3ccccc3)CC2)cc1` [Compound 20, 1-(4-(tert-butyl)phenyl)-2-(4-(hydroxydiphenylmethyl)piperidin-1-yl)ethanone] yielded an MIC [1] greater than 256 µg/mL.

For `CC(C)(C)c1ccc(C(N)CCCN2CCC(C(O)(c3ccccc3)c3ccccc3)CC2)cc1` (centres unmarked) [Compound 24, (1-(4-amino-4-(4-(tert-butyl)phenyl)butyl)piperidin-4-yl)diphenylmethanol], the MIC [1] was 16 µg/mL (≈ 34 µM).

In the case of S(−)Eticlopride hydrochloride, the “AK-based Prestwick Library Screening Results, E. faecium (fold increase in extracellular AK activity)” value [2, 10] is reported as 1.0, the “AK-based Prestwick Library Screening Results, S. aureus (fold increase in extracellular AK activity)” value [3, 10] is reported as 1.6 and the “AK-based Prestwick Library Screening Results, K. pneumoniae (fold increase in extracellular AK activity)” value [4, 10] is reported as 1.1. For the same compound, the “AK-based Prestwick Library Screening Results, A. baumannii (fold increase in extracellular AK activity)” value [5, 10] was 1.0, the “AK-based Prestwick Library Screening Results, P. aeruginosa (fold increase in extracellular AK activity)” value [6, 10] was 1.3 and the “AK-based Prestwick Library Screening Results, E. cloacae (fold increase in extracellular AK activity)” value [7, 10] was 1.8. For the same compound, the “AK-based Prestwick Library Screening Results, E. coli (fold increase in extracellular AK activity)” value [8, 10] was 0.9.

For Spiramycin, the “AK-based Prestwick Library Screening Results, E. faecium (fold increase in extracellular AK activity)” value [2, 11] was 1.0, the “AK-based Prestwick Library Screening Results, S. aureus (fold increase in extracellular AK activity)” value [3, 11] was 6.6 and the “AK-based Prestwick Library Screening Results, K. pneumoniae (fold increase in extracellular AK activity)” value [4, 11] was 0.8. For the same compound, the “AK-based Prestwick Library Screening Results, A. baumannii (fold increase in extracellular AK activity)” value [5, 11] was 0.9, the “AK-based Prestwick Library Screening Results, P. aeruginosa (fold increase in extracellular AK activity)” value [6, 11] was 0.7 and the “AK-based Prestwick Library Screening Results, E. cloacae (fold increase in extracellular AK activity)” value [7, 11] was 1.2. The “AK-based Prestwick Library Screening Results, E. coli (fold increase in extracellular AK activity)” value [8, 11] was 0.9.

Terbutaline hemisulfate was tested, and the “AK-based Prestwick Library Screening Results, E. faecium (fold increase in extracellular AK activity)” value [2, 12] was 1.0, the “AK-based Prestwick Library Screening Results, S. aureus (fold increase in extracellular AK activity)” value [3, 12] was 1.1 and the “AK-based Prestwick Library Screening Results, K. pneumoniae (fold increase in extracellular AK activity)” value [4, 12] was 1.3. For the same compound, the “AK-based Prestwick Library Screening Results, A. baumannii (fold increase in extracellular AK activity)” value [5, 12] was 1.1, the “AK-based Prestwick Library Screening Results, P. aeruginosa (fold increase in extracellular AK activity)” value [6, 12] was 1.1 and the “AK-based Prestwick Library Screening Results, E. cloacae (fold increase in extracellular AK activity)” value [7, 12] was 1.4. For the same compound, the “AK-based Prestwick Library Screening Results, E. coli (fold increase in extracellular AK activity)” value [8, 12] was 1.2.

For Thioproperazine dimesylate, the “AK-based Prestwick Library Screening Results: E. faecium (increase in extracellular AK activity)” value ([2]; planktonic E. faecium, 384-well, cutoff for positive-scoring molecules 3-fold increase) was 1.0, the “AK-based Prestwick Library Screening Results: S. aureus (increase in extracellular AK activity)” value ([3]; planktonic S. aureus, 384-well, cutoff for positive-scoring molecules 3-fold increase) was 1.0 and the “AK-based Prestwick Library Screening Results: K. pneumoniae (increase in extracellular AK activity)” value ([4]; planktonic K. pneumoniae, 384-well, cutoff for positive-scoring molecules 3-fold increase) was 1.1. For the same compound, the “AK-based Prestwick Library Screening Results: A. baumannii (increase in extracellular AK activity)” value ([5]; planktonic A. baumannii, 384-well, cutoff for positive-scoring molecules 3-fold increase) was 1.7, the “AK-based Prestwick Library Screening Results: P. aeruginosa (increase in extracellular AK activity)” value ([6]; planktonic P. aeruginosa, 384-well, cutoff for positive-scoring molecules 3-fold increase) was 1.1 and the “AK-based Prestwick Library Screening Results: E. cloacae (increase in extracellular AK activity)” value ([7]; planktonic E. cloacae, 384-well, cutoff for positive-scoring molecules 3-fold increase) was 1.3. For the same compound, the “AK-based Prestwick Library Screening Results: E. coli (increase in extracellular AK activity)” value ([8]; planktonic E. coli, 384-well, cutoff for positive-scoring molecules 3-fold increase) was 1.5.

In the case of Timolol maleate salt, the “AK-based Prestwick Library Screening Results, E. faecium (fold increase in extracellular AK activity)” value [2, 10] is reported as 1.0, the “AK-based Prestwick Library Screening Results, S. aureus (fold increase in extracellular AK activity)” value [3, 10] is reported as 1.3 and the “AK-based Prestwick Library Screening Results, K. pneumoniae (fold increase in extracellular AK activity)” value [4, 10] is reported as 1.1. The “AK-based Prestwick Library Screening Results, A. baumannii (fold increase in extracellular AK activity)” value [5, 10] was 1.5, the “AK-based Prestwick Library Screening Results, P. aeruginosa (fold increase in extracellular AK activity)” value [6, 10] was 1.1 and the “AK-based Prestwick Library Screening Results, E. cloacae (fold increase in extracellular AK activity)” value [7, 10] was 1.4. For the same compound, the “AK-based Prestwick Library Screening Results, E. coli (fold increase in extracellular AK activity)” value [8, 10] was 1.3.

Trimeprazine tartrate was tested, and the “AK-based Prestwick Library Screening Results, E. faecium (fold increase in extracellular AK activity)” value [2, 10] was 1.0, the “AK-based Prestwick Library Screening Results, S. aureus (fold increase in extracellular AK activity)” value [3, 10] was 1.1 and the “AK-based Prestwick Library Screening Results, K. pneumoniae (fold increase in extracellular AK activity)” value [4, 10] was 0.9. For the same compound, the “AK-based Prestwick Library Screening Results, A. baumannii (fold increase in extracellular AK activity)” value [5, 10] was 1.1, the “AK-based Prestwick Library Screening Results, P. aeruginosa (fold increase in extracellular AK activity)” value [6, 10] was 1.2 and the “AK-based Prestwick Library Screening Results, E. cloacae (fold increase in extracellular AK activity)” value [7, 10] was 1.5. For the same compound, the “AK-based Prestwick Library Screening Results, E. coli (fold increase in extracellular AK activity)” value [8, 10] was 1.2.

With Trimipramine maleate salt the “AK-based Prestwick Library Screening Results, E. faecium (fold increase in extracellular AK activity)” value [2, 11] was 0.9, the “AK-based Prestwick Library Screening Results, S. aureus (fold increase in extracellular AK activity)” value [3, 11] was 0.5 and the “AK-based Prestwick Library Screening Results, K. pneumoniae (fold increase in extracellular AK activity)” value [4, 11] was 0.6. For the same compound, the “AK-based Prestwick Library Screening Results, A. baumannii (fold increase in extracellular AK activity)” value [5, 11] was 0.6, the “AK-based Prestwick Library Screening Results, P. aeruginosa (fold increase in extracellular AK activity)” value [6, 11] was 0.6 and the “AK-based Prestwick Library Screening Results, E. cloacae (fold increase in extracellular AK activity)” value [7, 11] was 0.6. For the same compound, the “AK-based Prestwick Library Screening Results, E. coli (fold increase in extracellular AK activity)” value [8, 11] was 0.6.

In the case of Tyloxapol, the “AK-based Prestwick Library Screening Results, E. faecium (fold increase in extracellular AK activity)” value [2, 10] is reported as 1.0, the “AK-based Prestwick Library Screening Results, S. aureus (fold increase in extracellular AK activity)” value [3, 10] is reported as 1.4 and the “AK-based Prestwick Library Screening Results, K. pneumoniae (fold increase in extracellular AK activity)” value [4, 10] is reported as 1.5. For the same compound, the “AK-based Prestwick Library Screening Results, A. baumannii (fold increase in extracellular AK activity)” value [5, 10] was 1.3, the “AK-based Prestwick Library Screening Results, P. aeruginosa (fold increase in extracellular AK activity)” value [6, 10] was 1.2 and the “AK-based Prestwick Library Screening Results, E. cloacae (fold increase in extracellular AK activity)” value [7, 10] was 1.2. For the same compound, the “AK-based Prestwick Library Screening Results, E. coli (fold increase in extracellular AK activity)” value ([8]; […]) was 1.4.

For Verteporfin, the “AK-based Prestwick library screening result, E. faecium (fold increase in extracellular AK activity)” value [2, 13] was 1.2, the “AK-based Prestwick library screening result, S. aureus (fold increase in extracellular AK activity)” value [3, 14] was 0.5 and the “AK-based Prestwick library screening result, K. pneumoniae (fold increase in extracellular AK activity)” value [4, 15] was 0.8. The “AK-based Prestwick library screening result, A. baumannii (fold increase in extracellular AK activity)” value [5, 16] was 0.9, the “AK-based Prestwick library screening result, P. aeruginosa (fold increase in extracellular AK activity)” value [6, 17] was 0.8 and the “AK-based Prestwick library screening result, E. cloacae (fold increase in extracellular AK activity)” value [7, 18] was 1.6. For the same compound, the “AK-based Prestwick library screening result, E. coli (fold increase in extracellular AK activity)” value [8, 19] was 0.7.

Viomycin sulfate was tested, and the “AK-based Prestwick library screening result, E. faecium (fold increase in extracellular AK activity)” value ([2]; planktonic E. faecium, […]) was 1.0, the “AK-based Prestwick library screening result, S. aureus (fold increase in extracellular AK activity)” value ([3]; planktonic S. aureus, […]) was 1.3 and the “AK-based Prestwick library screening result, K. pneumoniae (fold increase in extracellular AK activity)” value ([4]; planktonic K. pneumoniae, […]) was 0.9. The “AK-based Prestwick library screening result, A. baumannii (fold increase in extracellular AK activity)” value ([5]; planktonic A. baumannii, […]) was 1.1, the “AK-based Prestwick library screening result, P. aeruginosa (fold increase in extracellular AK activity)” value ([6]; planktonic P. aeruginosa, […]) was 0.9 and the “AK-based Prestwick library screening result, E. cloacae (fold increase in extracellular AK activity)” value ([7]; planktonic E. cloacae, […]) was 1.6. The “AK-based Prestwick library screening result, E. coli (fold increase in extracellular AK activity)” value ([8]; planktonic E. coli, […]) was 1.0.

In the case of Vitamin K2, the “AK-based Prestwick library screening result, E. faecium (fold increase in extracellular AK activity)” value [2, 13] is reported as 1.0, the “AK-based Prestwick library screening result, S. aureus (fold increase in extracellular AK activity)” value [3, 14] is reported as 1.8 and the “AK-based Prestwick library screening result, K. pneumoniae (fold increase in extracellular AK activity)” value [4, 15] is reported as 0.8. The “AK-based Prestwick library screening result, A. baumannii (fold increase in extracellular AK activity)” value [5, 16] was 1.1, the “AK-based Prestwick library screening result, P. aeruginosa (fold increase in extracellular AK activity)” value [6, 17] was 1.1 and the “AK-based Prestwick library screening result, E. cloacae (fold increase in extracellular AK activity)” value [7, 18] was 1.6. For the same compound, the “AK-based Prestwick library screening result, E. coli (fold increase in extracellular AK activity)” value [8, 19] was 0.9.
